Earlier results as cited in patent US7199111B2, “Aqueous ifosfamide compositions for parenteral administration and a process for their preparations” (Bharat Serums & Vaccines Ltd., priority 2002, dated 2007).

What was measured:
[1] = Ifosfamide in water
mouse = details: intravenous administration, reported

## O=P1(NCCCl)OCCCN1CCCl (centres unmarked) [Ifosfamide, 3-(2-chloroethyl)-2-[(2-chloroethyl)amino]-tetrahydro-2H-1,3,2-oxazaphosphorin-2-oxide]
[1]
  water solubility: about 100 mg/ml
mouse
  LD50: 338 mg/kg body weight
